Measurements reported in patent US20090253771A1, “INHIBITION OF GLIOTOXIN” (priority 2006, published 2009).
Where a SMILES comes first, the peptide text is derived from it. The star is where a group is joined. Cbz = O=C(OCc1ccccc1)*; CH2F = FC*

Assays:
[1] = system: mouse embryonic fibroblasts (MEFs); assay: Gliotoxin-induced apoptosis in MEFs: nuclear fragmentation (Hoechst 33342), PS exposure (annexin V-FITC) and PI uptake; type: cell-based; settings: 1 μM GT, 4 h
Method: (§1) Gliotoxin (GT) was purified from Penicillium terlikowskii as described [Waring, 1988]. For apoptosis induction, 4×10^5 MEFs were incubated with different concentrations of GT or staurosporine (Sigma) for 4 h and apoptosis assays were performed as described below. In some cases the general caspase inhibitor Ac-ZVAD-fmk (Bachem) or the ROS scavengers N-acetylcysteine (NAC) (Sigma) or MnTBAP (Calbiochem) were added as described [Pardo, 2004]. To test the inhibitory potency of Ac-ZVAD-.fmk, MBL-2. Fas cells were incubated with anti-Fas mAb Jo-2 (1 μg/ml) for 24 h in the presence or absence of 100 μM of the caspase inhibitor and cell death was analysed by trypan blue exclusion. Nuclei were stained with 10 μg/ml of Hoechst 33342 (Molecular Probes).
(§2) Phosphatidylserine (PS) exposure and propidium iodide (PI) uptake was analysed by FACS or fluorescence microscopy as described [Pardo, 2004] using the annexin V-FITC kit from BD Pharmingen. The mitochondrial membrane potential was measured with the fluorescent probe 3,3′-dihexyloxacarbocyanine iodide (DiOC6(3), Molecular Probes) and ROS generation with 2-hydroxiethidine (2-HE, Molecular Probes) as described [Pardo, 2004].

[2] = system: mouse embryonic fibroblasts (MEFs); assay: Nuclear translocation of AIF (confocal microscopy); type: cell-based; settings: 1 μM GT, 4 h
Method: (§3) Cytochrome c release was quantified by FACS analysis as recently described [Waterhouse, 2003]. Briefly, 1×10^6 of MEFs were mildly permeabilized with 25 μg/ml digitonin plus 100 mM KCl on ice for 5 min. This lead to the cellular loss of cytosolic cytochrome c. Cells were washed once with cold PBS, fixed in 4% PFA, permeabilized with 0.05% saponin and 3% BSA and then incubated with the anti-cytochrome c mAb 6H2.B4 (BD Pharmingen) or mouse IgG isotype control (Jackson) followed by anti-mouse-FITC secondary antibody (Jackson). The cells were resuspended in 100 μl PFA in PBS and analysed by FACS with a FACScan (BD) and CellQuest® software. For the analysis of the nuclear translocation of AIF, cells were fixed, mounted on poly-L-lysine coverslides and stained with a rabbit polyclonal antiAIF antibody (Sigma) as described [Pardo, 2001]. Afterwards the cells were analysed by confocal microscopy using a Leica SP2 confocal microscope and Imaris® software.

[3] = target: T1, Bak (Mus musculus, UniProt O08734); assay: Conformational change of Bak (FACS, N-terminus-specific antibody); type: cell-based; settings: 4 h; for effect on GT-induced N-terminal opening of Bak: 100 μM Z-VAD.fmk or 15 mM NAC or MnTBAP
T1 construct: endogenous in cells; host or cells: SV40-transformed mouse embryonic fibroblasts (wt, Bid-/-; Bak-/-xBax-/- as negative control)
T1 sequence (O08734 1-209): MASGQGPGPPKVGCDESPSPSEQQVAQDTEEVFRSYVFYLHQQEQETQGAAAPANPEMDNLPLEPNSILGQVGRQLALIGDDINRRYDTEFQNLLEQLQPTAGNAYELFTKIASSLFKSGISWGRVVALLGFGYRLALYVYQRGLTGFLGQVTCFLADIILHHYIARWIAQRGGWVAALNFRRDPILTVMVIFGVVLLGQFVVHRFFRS
Method: (§4) MEFs were fixed in 4% PFA, permeabilized with 0.1% saponin in PBS/5% fetal calf serum (FCS) and incubated with 2 μg/ml rabbit polyclonal anti-Bak (NT, Upstate Biotechnology) 5 μg/ml rabbit polyclonal anti-Bax (NT, Upstate Biotechnology) or 5 μg/ml rabbit purified IgG (control). After two washes with 0.1% saponin in PBS, the cells were incubated with anti rabbit-FITC antibody in 0.1% saponin/PBS/5% FCS, washed twice in 0.1% saponin/PBS, resuspended in 1% PFA/PBS and analysed by FACS with a FACScan (BD) and CellQuest® software.

[4] = system: mitochondria isolated from MEFs or FDMs; assay: Cytochrome c release from isolated mitochondria; type: biochemical, mouse
Method: 8×10^7 MEFs or FDMs were centrifuged and washed once in PBS. The cell pellets were resuspended in 500 μl MSH-Buffer (210 mM mannitol; 70 mM sucrose; 20 mM HEPES; 1 mM EDTA; pH 7,5; 100 μM PMSF; 400 ng/ml pepstatin; 10 μg/ml leupeptin; 10 μg/ml aprotinin and 5 μg/ml cytochalasin B). The resuspended cell pellet was incubated on ice for 15 min before the cells were broken by passaging 25 times through a 23-gauge needle. The lysate was centrifuged at 500×g for 5 min to remove cell debris and nuclei. A crude mitochondrial pellet was then obtained by centrifugation at 10,000×g for 15 min and resuspended in MSH-Buffer. The isolated mitochondria were incubated with different concentrations of GT (10 μM, 20 μM and 50 μM), or 40 nM of recombinant tBid as a positive control at 37° C. for 4 hr. Following incubation, the mitochondria were pelleted, and both, pellet and supernatant were tested for cytochrome c release by SDS-PAGE.

[5] = system: mouse embryonic fibroblasts (MEFs); assay: Cell death (trypan blue exclusion) and cell detachment by microscopic inspection; type: cell-based
Method: as §1

[6] = system: mouse embryonic fibroblasts (MEFs); assay: Mitochondrial membrane potential (DiOC6(3)) and ROS generation (2-HE) by FACS; type: cell-based; settings: 1 μM GT, 4 h; for effect on GT-induced ROS production: 15 mM scavenger
Method: as §1, §2

[7] = system: caspase-3; assay: Caspase-3 activation (FACS, antibody against the active form); type: cell-based, mouse; settings: 1 μM GT, 4 h; wt and Bax−/− MEFs
Method: Cells were fixed with 4% paraformaldehyde (PFA) and incubated with a monoclonal antibody against the active form of caspase-3 (clone C92605, BD Pharmingen). Following incubation with a FITC-labeled secondary antibody, the cells were analyzed by FACS as described [Pardo, 2004].

[8] = system: Fas-negative cells; assay: GT-induced pro-apoptotic processes in Fas-negative cells (cell adhesion / cell death, neutral red); type: cell-based
Method: This pro-apoptotic activity may be inhibited by GT-inhibitors, e.g. anti-GT-antibodies. The degree of cell adhesion and/or cell death may be determined by standard methods. For example, the cells may be labelled with a suitable dye, e.g. neutral red, allowed to adhere and incubated subsequently with GT in the presence of a test compound. After an appropriate incubation time, the non-adherent cells may be removed and the remaining adherent cells and/or the removed cells may be determined. For example, the dye neutral red may be released from cells by […]/ethanol. Non-adherent cells equating with cell death may be quantitatively determined, e.g. with an optical detection method, preferably by measuring the absorbance at 540 nm according to standard methods, e.g. in a microplate reader.
Screening for antifungal agents capable of inhibiting the interaction between GT and Bak can be performed by means of the methylcholanthrene-induced cell line MC.Fas^−/− (date of deposition at DSMZ: 4 May 2006) stained with the vital dye Neutral Red. […] Cell loss equates with cell death resulting from GT-induced pro-apoptotic processes, and is quantified automatically by loss of absorbance at 540 nm using a microplate reader.

[9] = system: mouse embryonic fibroblasts (MEFs); assay: Cytochrome c release on cells (FACS); type: cell-based; settings: 1 μM GT, 4 h
Method: as §3

[10] = system: MBL-2.Fas cells; assay: Anti-Fas mAb Jo-2 induced cell death (trypan blue exclusion), test of the caspase inhibitor; type: cell-based; settings: 1 μg/ml Jo-2, 24 h; 100 μM inhibitor
Method: as §1

[11] = system: Bax; assay: Conformational change of Bax (FACS, N-terminus-specific antibody); type: cell-based, mouse; settings: staurosporine 1 and 5 μM, 4 h, MEFs
Method: as §4

[12] = 10, 20 or 50 μM GT, 4 h, 37° C.

Compound: CN1C(=O)[C@]23CC4=CC=C[C@H](O)[C@H]4N2C(=O)[C@@]1(CO)SS3 [GT, Gliotoxin]
- apoptotic cells (PS exposed, annexin-V staining, without plasma membrane disruption) ([1]; wt MEFs): ~50%
- nuclear fragmentation ([1]; wt MEFs, Hoechst 33342): nuclear fragmentation in the majority
- number of annexin-V/PI positive cells vs mock treated cells ([1]; Bak−/− and Bak−/−×Bax−/− MEFs): did not
- number of annexin-V/PI positive cells vs mock treated cells ([1]; wt, Bak−/− (so in the source) and Bid−/− MEFs): significantly increased
- localization of AIF ([2]; Bak−/− and Bak−/−×Bax−/− MEFs): retained most of the AIF in the mitochondria
- cells with cytosolic localization and nuclear translocation of AIF ([2]; wt and Bax−/− MEFs): a high portion
- N-terminal epitope exposure (conformational change) of Bak ([3]; 1 μM GT, wt MEFs): readily induce N-terminal epitope exposure in Bak
- cytochrome c release from isolated mitochondria [4, 12]: dose-dependent manner
- cytochrome c release from isolated mitochondria compared with 40 nM recombinant tBid [4, 12]: as efficient as that induced by recombinant tBid
- cytochrome c release from isolated mitochondria ([4]; mitochondria from Bak−/− or Bak−/−×Bax−/− MEFs or FDMs): absent
- GT-mediated cell death (trypan blue exclusion) ([5]; increasing amounts of GT, 4 h, Bak−/− and Bak−/−×Bax−/− MEFs, not wt or Bax−/−): significantly reduced
- GT-induced loss of cell adherence ([5]; increasing amounts of GT, 4 h, Bax- and/or Bak-deficient MEFs vs wt): only marginally, if at all, diminished
- ROS production ([6]; wt, Bax−/− and Bid−/− MEFs): parallel increase
- mitochondrial membrane potential (Δψm) ([6]; wt, Bax−/− and Bid−/− MEFs): significant reduction
- caspase-3 activation [7]: significantly activated
- induction of pro-apoptotic processes resulting in loss of cell adhesion and cell death [8]: dose-dependent manner
- mitochondrial cytochrome c ([9]; Bak−/− or Bak−/−×Bax−/− MEFs): retained
- mitochondrial cytochrome c ([9]; wt and Bax−/− MEFs): reduced

Compound: O=C(O)c1ccc(/C2=C3\C=CC(=N3)/C(c3ccc(C(=O)O)cc3)=c3/cc/c4[n]3[Mn]([Cl])[n]3c2ccc3/C(c2ccc(C(=O)O)cc2)=C2/C=CC(=N2)\C=4c2ccc(C(=O)O)cc2)cc1 [MnTBAP, Mn(III) tetrakis(4-benzoic acid)porphirin chloride]
- effect on GT-induced N-terminal opening of Bak ([3]; wt MEFs, 1 μM GT): unaffected
- effect on GT-induced ROS production ([6]; wt MEFs): significantly reduced

Compound: CC(=O)N[C@@H](CS)C(=O)O [NAC, N-acetylcysteine]
- effect on GT-induced PS exposure and plasma membrane permeability ([1]; wt MEFs, 15 mM NAC): abrogated
- effect on GT-induced AIF release from mitochondria ([2]; wt MEFs, 15 mM NAC): greatly diminished
- effect on GT-induced N-terminal opening of Bak ([3]; wt MEFs, 1 μM GT): unaffected
- effect on GT-induced cell death (trypan blue staining) ([5]; wt MEFs, 1 μM GT, 4 h, NAC): totally inhibited
- effect on GT-induced cell detachment ([5]; wt MEFs, 1 μM GT, 4 h, NAC): totally inhibited
- effect on GT-induced reduction of the mitochondrial Δψm ([6]; wt MEFs, 15 mM NAC): abrogated
- effect on GT-induced ROS production ([6]; wt MEFs): significantly reduced
- effect on GT-induced cytochrome c release from mitochondria ([9]; wt MEFs, 15 mM NAC): greatly diminished

Compound: COC(=O)C[C@H](NC(=O)[C@H](C)NC(=O)[C@@H](NC(=O)OCc1ccccc1)C(C)C)C(=O)CF [Z-VAD.fmk] (Cbz-Val-Ala-Asp(OMe)-CH2F)
- effect on GT-induced annexin-V/PI staining ([1]; wt MEFs, 100 μM Z-VAD.fmk): reduced
- effect on GT-induced AIF release ([2]; wt MEFs, 100 μM Z-VAD): not blocked
- effect on GT-induced N-terminal opening of Bak ([3]; wt MEFs, 1 μM GT): unaffected
- effect on apoptosis induced by the anti-Fas antibody Jo-2 [10]: blocked
- effect on GT-induced cell death ([5]; wt MEFs, GT 4 h, Z-VAD.fmk): reduced
- effect on loss of the mitochondrial Δψm in GT-treated cells ([6]; wt MEFs, 100 μM Z-VAD.fmk): did not prevent
- effect on GT-induced cytochrome c release ([9]; wt MEFs, 100 μM Z-VAD): not blocked

Compound: CN[C@@H]1C[C@H]2O[C@@](C)([C@@H]1OC)n1c3ccccc3c3c4c(c5c6ccccc6n2c5c31)C(=O)NC4 [staurosporine]
- activation of Bak ([3]; staurosporine 1 and 5 μM, MEFs): activates both Bax and Bak
- N-terminal conformational change of Bax [11]: led to the expected N-terminal opening of Bax
